Results: patent US5891917A, “Certain acrylonitrile-sulfonamide derivatives” (Sugen, Inc., priority 1997, dated 1999)

How the values were obtained:
[1] = tested on: chimeric receptor containing the EGFR extracellular domain and the HER2 intracellular kinase domain; test: EGFR-HER2 chimeric receptor whole cell kinase ELISA (3T3); format: cell-based; conditions: NIH3T3 cells with EGFR/HER2 chimera, 100 nM EGF
Text: (§1) The following examples illustrate the ability of the exemplary compounds to inhibit receptor tyrosine kinases, such as HER2 and/or EGFR. The following target cells were used for cellular kinase assays: NIH3T3 clone C7 (Honegger et al., supra) engineered to over-express human EGF receptor; NIH3T3 cells engineered to over-express a chimeric receptor containing the EGFR extracellular domain and the HER2 intracellular kinase domain; the human mammary carcinoma line BT474 (ATCC HTB2) expressing HER2; and the human glioblastoma line U1242 that expresses PDGFR-beta. Growth assays were carried out using human mammary epithelial SKBR3 (ATCC HTB30) cells (SKBR3 cells over-express HER2), SKOV3 (ATCC HTB77) human ovarian cancer cell line (SKOV3 cells also over-express HER2), A431 cells (A431 cells over-express EGFR) MCF7 human breast carcinoma cells, MCF7 cells overexpressing the HER2 kinase (MCF7-HER2), NIH3T3 cells, and NIH3T3 cells overexpressing the HER2 kinase (3T3-HER2.
EGFR-HER2 Chimeric Recetor
HER2 kinase activity (EGFR-3T3) in whole cells was measured as described below:
The materials and regeants are identical to these used in example 1, the EGFR whole cell kinase assay.
A. Coat ELISA plates (Corning, 96 well, Cat. #25805-96) with 05-101 antibody at 0.5 μg per well in PBS, 100 μl final volume/well, and store overnight at 4° C. Coated plates are good for up to 10 days when stored at 4° C.
B. On day of use, remove coating buffer and replace with 100 μl blocking buffer (5% Carnation Instant Non-Fat Dry Milk in PBS). Incubate the plate, shaking, at room temperature (about 23° C. to 25° C.) for 30 minutes. Just prior to use, remove blocking buffer and wash plate 4 times with TBST buffer.
A. An NIH3T3 cell line overexpressing a chimeric receptor containing the EGFR extracellular domain and extracellular HER2 kinase domain can be used for this assay.
B. Choose dishes having 80-90% confluence for the experiment. Trypsinize cells and stop reaction by adding 10% fetal bovine serum. Suspend cells in DMEM medium (10% CS DMEM medium) and centrifuge once at 1500 rpm, at room temperature for 5 minutes.
C. Resuspend cells in seeding medium (DMEM, 0.5% bovine serum), and count the cells using trypan blue. Viability above 90% is acceptable. Seed cells in DMEM medium (0.5% bovine serum) at a density of 10,000 cells per well, 100 μl per well, in a 96 well microtiter plate. Incubate seeded cells in 5% CO2 at 37° C. for about 40 hours.
A. Check seeded cells for contamination using an inverted microscope. Dilute drug stock (10 mg/ml in DMSO) 1:10 in DMEM medium, then transfer 5 l to a […] well for a final drug dilution of 1:200 and a final DMSO concentration of 1%. Control wells receive DMSO alone. Incubate in 5% CO2 at 37° C. for two hours.
B. Prepare EGF ligand: dilute stock EGF in DMEM so that upon transfer of 10 μl dilute EGF (1:12 dilution), 100 nM final concentration is attained.
D. After 120 minutes incubation with drug, add prepared […] ligand to cells, 10 μl per well, to a final concentration of 100 nM. Control wells receive DMEM alone. Incubate, shaking, at room temperature, for 5 minutes.
E. Remove drug, EGF, and DMEM. Wash cells twice with PBS. Transfer HNTG* to cells, 100 μl per well. Place on ice for 5 minutes. Meanwhile, remove blocking buffer from other ELISA plate and wash with TBST as described above.
F. With a pipette tip securely fitted to a micropipettor, scrape cells from plate and homogenize cell material by repeatedly aspirating and dispensing the HNTG* lysis buffer. Transfer lysate to a coated, blocked, and washed ELISA plate. Incubate shaking at room temperature for one hour.
G. Remove lysate and wash 4 times with TBST. Transfer freshly diluted anti-Ptyr antibody to ELISA plate at 100 μl per well. Incubate shaking at room temperature for 30 minutes in the presence of the anti-Ptyr antiserum (1:3000 dilution in TBST).
H. Remove the anti-Ptyr antibody and wash 4 times with TBST. […]

HER2 = target: T1, HER2 (Homo sapiens, UniProt P04626); test: HER2-BT474 whole cell ELISA; format: cell-based; conditions: BT-474 cells
T1 construct: a human breast tumor cell line which expresses high levels of HER2 kinase; endogenous in cells; host or cells: BT-474 human breast tumor cells
T1 sequence (P04626 23-1255): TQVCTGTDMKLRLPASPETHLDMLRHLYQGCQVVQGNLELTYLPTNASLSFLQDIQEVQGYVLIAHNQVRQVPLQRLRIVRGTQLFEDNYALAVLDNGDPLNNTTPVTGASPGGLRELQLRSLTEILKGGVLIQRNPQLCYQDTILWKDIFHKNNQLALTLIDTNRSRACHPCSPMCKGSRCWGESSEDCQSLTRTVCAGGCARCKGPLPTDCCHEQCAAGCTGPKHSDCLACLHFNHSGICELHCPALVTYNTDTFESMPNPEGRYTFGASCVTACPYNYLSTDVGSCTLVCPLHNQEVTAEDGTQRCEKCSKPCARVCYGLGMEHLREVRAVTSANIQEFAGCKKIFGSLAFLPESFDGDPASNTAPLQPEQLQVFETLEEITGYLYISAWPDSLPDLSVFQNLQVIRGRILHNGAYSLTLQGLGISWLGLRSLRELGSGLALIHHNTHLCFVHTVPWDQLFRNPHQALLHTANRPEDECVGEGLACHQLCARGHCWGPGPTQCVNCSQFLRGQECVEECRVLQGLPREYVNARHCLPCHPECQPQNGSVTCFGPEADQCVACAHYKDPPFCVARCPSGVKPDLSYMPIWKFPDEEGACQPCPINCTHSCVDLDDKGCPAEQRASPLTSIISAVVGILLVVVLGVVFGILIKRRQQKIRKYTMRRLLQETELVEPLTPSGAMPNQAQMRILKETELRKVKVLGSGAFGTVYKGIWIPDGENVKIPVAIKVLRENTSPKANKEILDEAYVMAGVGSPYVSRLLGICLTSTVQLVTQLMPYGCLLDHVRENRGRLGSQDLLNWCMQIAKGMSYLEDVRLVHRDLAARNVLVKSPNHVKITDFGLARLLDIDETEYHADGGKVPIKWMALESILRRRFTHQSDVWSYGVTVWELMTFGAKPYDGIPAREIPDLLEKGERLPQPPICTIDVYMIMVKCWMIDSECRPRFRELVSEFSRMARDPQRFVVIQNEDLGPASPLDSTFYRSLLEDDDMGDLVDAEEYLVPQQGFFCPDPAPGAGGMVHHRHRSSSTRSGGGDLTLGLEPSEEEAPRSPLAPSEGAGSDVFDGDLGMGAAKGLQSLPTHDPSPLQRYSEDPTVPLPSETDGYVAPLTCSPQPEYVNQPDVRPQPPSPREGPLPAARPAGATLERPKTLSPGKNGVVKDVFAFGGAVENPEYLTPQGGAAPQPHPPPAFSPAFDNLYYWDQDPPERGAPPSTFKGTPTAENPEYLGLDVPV
Text: as §1
HER2-BT474 assays measuring whole cell HER2 activity was carried out as described below:
1. The cell line used in this assay is BT-474 (ATCC HBT20), a human breast tumor cell line which expresses high levels of HER2 kinase.
2. BT-474 is grown in an incubator with 5% CO2 at 37° C. The growth media is RPMI+10% FBS+GMS-G (Gibco supplement)+Glutamine.
(a) Grow BT474 cells in tissue culture dishes (10 cm, Corning 25020-100) to 80-90% confluence and collect using Trypsin-EDTA (0.25%, GIBCO).
(b) Resuspend the cells in fresh medium and transfer to 96-well tissue culture plates (Corning, 25806-96) at about 25,000-50,000 cells/well (100 μl/well). Incubate the cells in 5% CO2 at 37° C. overnight.
(a) Coat the ELISA plate (Corning 25805-96) with anti HER2 antibody at 0.5 μg/well in 150 μl PBS overnight at 4° C., and seal with parafilm. The antibody coated plates can be used up to 2 weeks, when stored at 4° C.
(b) On the day of use, remove the coating solution, replace with 200 μl of Blocking Buffer, shake the plate, and then remove the blocking buffer and wash the plate just before adding lysate.
(a) […] the drugs in serum-free condition. Before adding drugs, the old media is replaced with serum-free RPMI (90 μl/well)
(b) Dilute drug stock (in 100% DMSO) 1:10 with RPMI, and transfer 10 μl/well of this solution to the cells to achieve a final drug DMSO concentration at 1%. Incubate the cells in 5% CO2 at 37° C.
(c) Prepare fresh cell lysis buffer (HNTG*)
(d) After drug preincubation for two hours remove all the solution from the plate, transfer HNTG* 100 μl/well to the cells, and shake for 10 minutes.
(e) Use a 12-channel pipette to scrape the cells from the plate, and homogenize the lysate by repeat aspiration and dispensing. Transfer all the lysate to the ELISA plate and shake for 1 hour.
(f) Remove the lysate, wash the plate, add anti-pTyr (1:3,000 with TBST) 100 μl/well, and shake for 30 minutes.
(g) Remove anti-pTyr, wash the plate, add goat anti-rabbit IgG conjugated antibody (1:5,000 with TBST) 100 μl/well, and shake for 30 minutes.
(h) Remove anti-rabbit IgG antibody, wash the plate, and add fresh ABTS/H2 O2 (1.2 μl 30% H2 O2 to 10 ml ABTS) 100 μ/well to the plate to start color development, which usually takes 20 minutes.
(I) Measure OD 410 nm, Dynatec MR5000.

CC(C)c1cc(/C=C(\C#N)S(=O)(=O)c2ccccc2)cc(C(C)C)c1O [Compound 731]
IC50 [1]: 17.2 µM | IC50 (HER2): 0.3 µM

CC(C)c1cc(/C=C(\C#N)S(=O)(=O)NCc2ccccc2)cc(C(C)C)c1O [Compound 732]
IC50 [1]: 20.9 µM | IC50 (HER2): 1.9 µM

N#C/C(=C\c1ccc(O)cc1Cl)S(=O)(=O)NCc1ccccc1 [Compound 733]
IC50 [1]: 83.5 µM | IC50 (HER2): 5.8 µM

N#C/C(=C\c1ccc(O)cc1Cl)S(=O)(=O)NCCCc1ccccc1 [Compound 734]
IC50 [1]: 21.7 µM | IC50 (HER2): 1.8 µM

CC(C)(C)c1cc(/C=C(\C#N)S(=O)(=O)Cc2cccc(C(F)(F)F)c2)cc(C(C)(C)C)c1O [Compound 735]
IC50 [1]: 57.4 µM | IC50 (HER2): 0.3 µM

CC(C)c1cc(/C=C(\C#N)S(=O)(=O)Cc2cccc(C(F)(F)F)c2)cc(C(C)C)c1O [Compound 736]
IC50 [1]: 22.7 µM | IC50 (HER2): 0.8 µM

CC(C)c1cc(/C=C(\C#N)S(=O)(=O)c2cccs2)cc(C(C)C)c1O [Compound 737]
IC50 [1]: 32 µM | IC50 (HER2): 1 µM

CC(C)c1cc(/C=C(\C#N)S(=O)(=O)c2ccsc2)cc(C(C)C)c1O [Compound 738]
IC50 [1]: 36.4 µM | IC50 (HER2): 1.3 µM

Cc1cc(/C=C(\C#N)S(=O)(=O)Cc2cccc(C(F)(F)F)c2)cc(C)c1O [Compound 739]
IC50 [1]: > 100 µM | IC50 (HER2): 4.1 µM

CC(C)(C)c1cc(/C=C(\C#N)S(=O)(=O)c2ccc(F)cc2)cc(C(C)(C)C)c1O [Compound 740]
IC50 [1]: > 100 µM | IC50 (HER2): 0.4 µM

CC(C)c1cc(/C=C(\C#N)S(=O)(=O)c2ccc(F)cc2)cc(C(C)C)c1O [Compound 741, (E)-3-(3,5-Diisopropyl-4-hydroxyphenyl)-2-(4-fluorophenylsulfonyl)acrylonitrile]
IC50 [1]: 13.9 µM

CC(C)(C)c1cc(/C=C(\C#N)S(=O)(=O)c2cccs2)cc(C(C)(C)C)c1O [Compound 742]
IC50 [1]: 27.8 µM | IC50 (HER2): 0.2 µM

N#C/C(=C\c1ccc(O)c(O)c1)S(=O)(=O)c1cccs1 [Compound 743, (E)-3-(3,4-Dihydroxyphenyl)-2-[(thien-2-yl)sulfonyl]acrylonitrile]
IC50 (HER2): 12.6 µM

Cc1cc(/C=C(\C#N)S(=O)(=O)c2ccc(F)cc2)cc(C)c1O [Compound 744]
IC50 (HER2): 4.5 µM

CC(C)c1cc(/C=C(\C#N)S(=O)(=O)/C(C#N)=C/c2cc(C(C)C)c(O)c(C(C)C)c2)cc(C(C)C)c1O [Compound 745]
IC50 (HER2): > 50 µM

CC(C)(C)c1cc(/C=C(\C#N)S(=O)(=O)c2ccsc2)cc(C(C)(C)C)c1O [Compound 746]
IC50 [1]: 8.1 µM | IC50 (HER2): 0.3 µM
